Results taken from the supplement of paper PMC10307832.

The cell lines below were run with COc1cc([C@@H]2c3cc4c(cc3[C@@H](O[C@@H]3O[C@@H]5CO[C@@H](C)O[C@H]5[C@H](O)[C@H]3O)[C@H]3COC(=O)[C@H]23)OCO4)cc(OC)c1O [Etoposide] + CC(C)C[C@H](NC(=O)[C@H](Cc1ccccc1)NC(=O)c1cnccn1)B(O)O [Bortezomib] (partner 0.002 µM) (assay: relative viability (nuclei count vs DMSO), 5 days (fraction); higher = more cells survive). Settings: first compound 0.01 µM.
Summary of the method: (§1)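 Relative viability was taken as the ratio of nuclei in treated wells to nuclei in vehicle wells. Lung cancer cell lines in 1536-well plates received compounds by pin tool one day after seeding, either one drug alone or a fixed anchor-drug dose plus five library-drug doses (not always all listed) in √10 steps. Nuclei were counted on 4× images after 5 days of treatment, and values are medians of duplicate plates.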

| Cell Line | relative viability |
| --- | --- |
| COR-L 105 | 0.613 |
| LOU-NH91 | 0.563 |
| ChaGo-K-1 | 1.16 |
| NCI-H3122 | 1.04 |
| HOP-62 | 0.644 |
| LU99A | 1.31 |
| BEN | 0.728 |
| HARA | 1.04 |
| HCC-78 | 0.487 |
| NCI-H441 | 0.457 |
| LCLC-97TM1 | 0.865 |
| NCI-H2009 | 0.975 |
| A-427 | 0.92 |
| NCI-H460 | 0.933 |
| NCI-H1734 | 0.894 |
| NCI-H520 | 0.484 |
| NCI-H2405 | 0.987 |
| SW 1573 | 1 |
| 201T | 1.04 |
| NCI-H1915 | 0.963 |
| HCC-827 | 1.09 |
| LXF-289 | 1.01 |
| NCI-H2347 | 1.06 |
| NCI-H650 | 0.683 |
| CAL-12T | 1.07 |
| NCI-H1651 | 0.914 |
| EPLC-272H | 0.89 |

Same assay, conditions: first compound 0.03162 µM

| Cell Line | relative viability |
| --- | --- |
| COR-L 105 | 1.23 |
| LOU-NH91 | 0.502 |
| ChaGo-K-1 | 0.94 |
| NCI-H3122 | 0.986 |
| HOP-62 | 0.901 |
| LU99A | 1.31 |
| BEN | 0.869 |
| HARA | 1.29 |
| HCC-78 | 0.5 |
| NCI-H441 | 0.469 |
| LCLC-97TM1 | 0.329 |
| NCI-H2009 | 1.1 |
| A-427 | 1.02 |
| NCI-H460 | 0.763 |
| NCI-H1734 | 0.878 |
| NCI-H520 | 0.634 |
| NCI-H2405 | 1.05 |
| SW 1573 | 0.977 |
| 201T | 1.1 |
| NCI-H1915 | 0.969 |
| HCC-827 | 1.06 |
| LXF-289 | 1.07 |
| NCI-H2347 | 1.32 |
| NCI-H650 | 0.836 |
| CAL-12T | 1.08 |
| NCI-H1651 | 0.979 |
| EPLC-272H | 1.15 |

Same assay, conditions: first compound 0.1 µM

| Cell Line | relative viability |
| --- | --- |
| COR-L 105 | 0.502 |
| LOU-NH91 | 0.498 |
| ChaGo-K-1 | 0.679 |
| NCI-H3122 | 1.04 |
| HOP-62 | 0.298 |
| LU99A | 0.661 |
| HARA | 1.11 |
| HCC-78 | 0.35 |
| NCI-H441 | 0.447 |
| LCLC-97TM1 | 0.485 |
| NCI-H2009 | 0.933 |
| A-427 | 0.726 |
| NCI-H460 | 0.608 |
| NCI-H1734 | 0.572 |
| NCI-H520 | 0.379 |
| NCI-H2405 | 0.753 |
| SW 1573 | 0.608 |
| 201T | 1.01 |
| NCI-H1915 | 0.992 |
| HCC-827 | 1.07 |
| LXF-289 | 0.994 |
| NCI-H2347 | 0.716 |
| NCI-H650 | 0.63 |
| CAL-12T | 0.846 |
| NCI-H1651 | 0.875 |
| EPLC-272H | 0.669 |

Same assay, conditions: first compound 0.3162 µM

| Cell Line | relative viability |
| --- | --- |
| COR-L 105 | 0.7 |
| LOU-NH91 | 0.435 |
| ChaGo-K-1 | 0.337 |
| NCI-H3122 | 0.816 |
| HOP-62 | 0.412 |
| LU99A | 0.432 |
| BEN | 0.565 |
| HARA | 0.995 |
| HCC-78 | 0.314 |
| NCI-H441 | 0.286 |
| LCLC-97TM1 | 0.132 |
| NCI-H2009 | 0.628 |
| A-427 | 0.819 |
| NCI-H460 | 0.0494 |
| NCI-H1734 | 0.624 |
| NCI-H520 | 0.576 |
| NCI-H2405 | 0.531 |
| SW 1573 | 0.449 |
| 201T | 1.04 |
| NCI-H1915 | 0.906 |
| HCC-827 | 0.803 |
| LXF-289 | 0.75 |
| NCI-H2347 | 0.572 |
| NCI-H650 | 0.417 |
| CAL-12T | 0.648 |
| NCI-H1651 | 0.532 |
| EPLC-272H | 0.958 |

Same assay, conditions: first compound 1 µM

| Cell Line | relative viability |
| --- | --- |
| COR-L 105 | 0.495 |
| LOU-NH91 | 0.375 |
| ChaGo-K-1 | 0.282 |
| NCI-H3122 | 0.47 |
| HOP-62 | 0.328 |
| LU99A | 0.19 |
| BEN | 0.6 |
| HARA | 0.235 |
| HCC-78 | 0.229 |
| NCI-H441 | 0.177 |
| LCLC-97TM1 | 0.0671 |
| NCI-H2009 | 0.241 |
| A-427 | 0.244 |
| NCI-H460 | 0.0267 |
| NCI-H1734 | 0.308 |
| NCI-H520 | 0.561 |
| NCI-H2405 | 0.746 |
| SW 1573 | 0.186 |
| 201T | 0.765 |
| NCI-H1915 | 0.516 |
| HCC-827 | 0.458 |
| LXF-289 | 0.252 |
| NCI-H2347 | 0.515 |
| NCI-H650 | 0.222 |
| CAL-12T | 0.385 |
| NCI-H1651 | 0.181 |
| EPLC-272H | 0.526 |

The cell lines below were run with COc1cc([C@@H]2c3cc4c(cc3[C@@H](O[C@@H]3O[C@@H]5CO[C@@H](C)O[C@H]5[C@H](O)[C@H]3O)[C@H]3COC(=O)[C@H]23)OCO4)cc(OC)c1O [Etoposide] + O=C(CCCCCCC(=O)Nc1ccccc1)NO [Vorinostat] (partner 1 µM) in the same assay as above. Settings: first compound 0.01 µM.
Summary of the method: as §1

| Cell Line | relative viability |
| --- | --- |
| COR-L 105 | 1.09 |
| LOU-NH91 | 0.88 |
| ChaGo-K-1 | 0.756 |
| NCI-H3122 | 1.04 |
| HOP-62 | 0.631 |
| LU99A | 0.489 |
| BEN | 0.542 |
| HARA | 0.443 |
| HCC-78 | 0.396 |
| NCI-H441 | 0.645 |
| LCLC-97TM1 | 0.783 |
| NCI-H2009 | 0.704 |
| A-427 | 0.864 |
| NCI-H460 | 0.688 |
| NCI-H1734 | 0.701 |
| NCI-H520 | 0.777 |
| NCI-H2405 | 1.11 |
| SW 1573 | 0.646 |
| 201T | 0.905 |
| NCI-H1915 | 0.511 |
| HCC-827 | 0.917 |
| LXF-289 | 0.763 |
| NCI-H2347 | 0.412 |
| NCI-H650 | 0.438 |
| CAL-12T | 0.798 |
| NCI-H1651 | 0.602 |
| EPLC-272H | 0.415 |

Same assay, conditions: first compound 0.03162 µM

| Cell Line | relative viability |
| --- | --- |
| COR-L 105 | 0.856 |
| LOU-NH91 | 0.982 |
| ChaGo-K-1 | 0.736 |
| NCI-H3122 | 1.11 |
| HOP-62 | 0.711 |
| LU99A | 0.533 |
| BEN | 0.722 |
| HARA | 0.573 |
| HCC-78 | 0.494 |
| NCI-H441 | 0.625 |
| LCLC-97TM1 | 0.896 |
| NCI-H2009 | 0.631 |
| A-427 | 0.864 |
| NCI-H460 | 0.261 |
| NCI-H1734 | 0.929 |
| NCI-H520 | 0.776 |
| NCI-H2405 | 1.12 |
| SW 1573 | 0.625 |
| 201T | 1.03 |
| NCI-H1915 | 0.616 |
| HCC-827 | 0.972 |
| LXF-289 | 0.744 |
| NCI-H2347 | 0.646 |
| NCI-H650 | 0.454 |
| CAL-12T | 0.782 |
| NCI-H1651 | 0.65 |
| EPLC-272H | 0.464 |

Same assay, conditions: first compound 0.1 µM

| Cell Line | relative viability |
| --- | --- |
| COR-L 105 | 0.731 |
| LOU-NH91 | 0.831 |
| ChaGo-K-1 | 0.413 |
| NCI-H3122 | 0.598 |
| HOP-62 | 0.381 |
| LU99A | 0.23 |
| HARA | 0.586 |
| HCC-78 | 0.329 |
| NCI-H441 | 0.345 |
| LCLC-97TM1 | 0.315 |
| NCI-H2009 | 0.571 |
| A-427 | 0.761 |
| NCI-H460 | 0.286 |
| NCI-H1734 | 0.514 |
| NCI-H520 | 0.878 |
| NCI-H2405 | 0.765 |
| SW 1573 | 0.359 |
| 201T | 0.811 |
| NCI-H1915 | 0.426 |
| HCC-827 | 0.746 |
| LXF-289 | 0.953 |
| NCI-H2347 | 0.475 |
| NCI-H650 | 0.241 |
| CAL-12T | 0.724 |
| NCI-H1651 | 0.399 |
| EPLC-272H | 0.426 |

Same assay, conditions: first compound 0.3162 µM

| Cell Line | relative viability |
| --- | --- |
| COR-L 105 | 0.727 |
| LOU-NH91 | 0.659 |
| ChaGo-K-1 | 0.353 |
| NCI-H3122 | 0.66 |
| HOP-62 | 0.267 |
| LU99A | 0.297 |
| BEN | 0.559 |
| HARA | 0.125 |
| HCC-78 | 0.256 |
| NCI-H441 | 0.224 |
| LCLC-97TM1 | 0.316 |
| NCI-H2009 | 0.597 |
| A-427 | 0.625 |
| NCI-H460 | 0.0502 |
| NCI-H1734 | 0.458 |
| NCI-H520 | 0.591 |
| NCI-H2405 | 0.742 |
| SW 1573 | 0.228 |
| 201T | 0.887 |
| NCI-H1915 | 0.477 |
| HCC-827 | 0.605 |
| LXF-289 | 0.547 |
| NCI-H2347 | 0.382 |
| NCI-H650 | 0.266 |
| CAL-12T | 0.403 |
| NCI-H1651 | 0.387 |
| EPLC-272H | 0.267 |

Same assay, conditions: first compound 1 µM

| Cell Line | relative viability |
| --- | --- |
| COR-L 105 | 0.734 |
| LOU-NH91 | 0.387 |
| ChaGo-K-1 | 0.197 |
| NCI-H3122 | 0.224 |
| HOP-62 | 0.115 |
| LU99A | 0.108 |
| BEN | 0.616 |
| HARA | 0.095 |
| HCC-78 | 0.242 |
| NCI-H441 | 0.182 |
| LCLC-97TM1 | 0.0855 |
| NCI-H2009 | 0.409 |
| A-427 | 0.309 |
| NCI-H460 | 0.0457 |
| NCI-H1734 | 0.219 |
| NCI-H520 | 0.461 |
| NCI-H2405 | 0.27 |
| SW 1573 | 0.142 |
| 201T | 0.485 |
| NCI-H1915 | 0.418 |
| HCC-827 | 0.181 |
| LXF-289 | 0.136 |
| NCI-H2347 | 0.432 |
| NCI-H650 | 0.181 |
| CAL-12T | 0.213 |
| NCI-H1651 | 0.189 |
| EPLC-272H | 0.235 |
